This note sets out measurements from ChEMBL document CHEMBL1201862, “PubChem BioAssay data set” (2004).

What all share (test): NCI-60 cell line screen, 48 h
Test [1] concerns SNB-75.
Test [2] relates to NCI-H226.
Test [3] concerns COLO 205.
Test [4] has as its system HOP-92.
Test [5] deals with SN12C.
Test [6] concerns LOX IMVI.
Test [7] relates to UACC-62.
Test [8] has as its system MDA-N.
Test [9] concerns M14.
In test [10] the test system is SR.
Test [11] deals with 786-0.
Test [12] concerns SK-OV-3.
The test system of test [13] is ACHN.
The test system of test [14] is SW-620.
Test [15] deals with UO-31.
In test [16] the test system is HCT-116.
In test [17] the test system is OVCAR-5.
In test [18] the test system is T47D.
In test [19] the test system is SK-MEL-2.

Structures are written as SMILES.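 Assay format: 96-well plates, 48-hour exposure. GI50 = concentration required for 50% inhibition of growth.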 Activity calls are given as the source filed them. Rule as the data show it: active = GI50 up to about 1.1 µM and inactive = higher.

As to `N=C(N)C1CN(CCc2c[nH]c3ccccc23)C(=O)NC1=O` (centres undefined), the GI50 in test [1], in [2], in [3], in test [4], in test [5] and in test [6] was > 100 µM (inactive) each time. For the same compound, the GI50 in test [7], in test [8], in [9], in test [10], in test [11] and in test [12] was > 100 µM (inactive) each time. Further, the GI50 in test [13], in test [14], in [15], in test [16], in [17] and in test [18] was > 100 µM (inactive) in each case.

Take `CC[C@H](C)C1=C(O)[N@+]2([O-])Oc3ccc(-c4c(O)c(O)c(-c5ccc(O)cc5)c(OC(C)=O)c4OC(C)=O)cc3O[C@]2([C@@H](C)CC)C(=O)N1O`: the GI50 in test [19] was > 50 µM (inactive); in test [3], > 50 µM (inactive); in [4] it was 6.52 µM (inactive); in test [5] it was 19.3 µM (inactive); in test [6] it was 22.4 µM (inactive); in test [7], 17.4 µM (inactive). Besides, the GI50 in [8] was 29.2 µM (inactive); in test [9], 30.2 µM (inactive); in test [10], 23.5 µM (inactive); in test [11], 47.2 µM (inactive); in test [12], 15.9 µM (inactive); in test [13] it was 22.5 µM (inactive). The GI50 in [14] was 15.7 µM (inactive); in test [15], 33.8 µM (inactive); in test [16], 10.1 µM (inactive); in [17], > 50 µM (inactive); in test [18], > 50 µM (inactive).

In the case of `Cc1ccc(C(C)C)c(OCC(=O)N/N=C/c2c[nH]c3ccc(Br)cc23)c1`, the GI50 in test [1] is 2.13 µM (inactive); in test [19], 2.44 µM (inactive); in test [3], 1.69 µM (inactive); in [4] it was 12.3 µM (inactive); in test [5], 3.27 µM (inactive); in [6], 3.69 µM (inactive). For the same compound, the GI50 is 2.29 µM (inactive) in test [7]; 0.923 µM (active) in test [8]; 1.98 µM (inactive) in test [9]; 0.698 µM (active) in test [10]; 3.42 µM (inactive) in [11]; 2.58 µM (inactive) in test [12]. The GI50 in test [13] was 4.85 µM (inactive); in [14], 3.61 µM (inactive); in test [15], 3.49 µM (inactive); in test [16], 3.15 µM (inactive); in test [17] it was 5.11 µM (inactive); in test [18], 5.62 µM (inactive).

Consider `CCCC(=O)NC(NC1CCCCC1)(C(=O)OCC)C(F)(F)F` (centres undefined), for which the GI50 in test [1] is 29.7 µM (inactive); in test [19], > 100 µM (inactive); in [2], > 100 µM (inactive); in [4] it was > 100 µM (inactive); in test [5] it was > 100 µM (inactive); in test [6], > 100 µM (inactive). Further, the GI50 in test [8], in test [9], in [10], in test [11], in test [12] and in [13] was > 100 µM (inactive) each time. Further, the GI50 in [14], in [15], in test [16], in [17] and in test [18] was > 100 µM (inactive) in each case.

On to `Cc1c(C)c2c(c(N)c1C#N)C(=O)N(OS(=O)(=O)c1ccccc1)C2=O`, for which the GI50 in [1] was 32.5 µM (inactive); in test [19] it was 49 µM (inactive); in test [2] it was 18.5 µM (inactive); in [3] it was 21.8 µM (inactive); in test [4], 17 µM (inactive); in test [5], 23.7 µM (inactive). In addition, the GI50 was 26.2 µM (inactive) in test [6]; 23.9 µM (inactive) in [7]; 29.8 µM (inactive) in [8]; 19.5 µM (inactive) in test [9]; 27 µM (inactive) in [10]; 16.4 µM (inactive) in test [11]. The GI50 in test [13] was 18.5 µM (inactive); in [14] it was 20.8 µM (inactive); in [15], 33.7 µM (inactive); in [16] it was 4.42 µM (inactive); in [17], > 100 µM (inactive); in test [18], 2.55 µM (inactive).

For `O=C(NCCC1([N+](=O)[O-])CCN(C(=O)c2ccccc2)CC1)c1ccccc1`, the GI50 in [19] was > 100 µM (inactive); in test [2] it was > 100 µM (inactive); in test [3] it was 53.7 µM (inactive); in [4], < 0.01 µM (active); in test [5], > 100 µM (inactive); in test [7] it was 57.4 µM (inactive). The GI50 was 47.1 µM (inactive) in test [8]; > 100 µM (inactive) in [9]; > 100 µM (inactive) in test [10]; > 100 µM (inactive) in test [11]; > 100 µM (inactive) in test [12]; > 100 µM (inactive) in [13]. In addition, the GI50 in [14] was > 100 µM (inactive); in [15] it was 55.2 µM (inactive); in test [16], > 100 µM (inactive); in test [17] it was > 100 µM (inactive); in test [18], > 100 µM (inactive).

As for `CCOC(=O)c1cc2c3c(c(C(C)=O)c(O)c2[nH]1)N(CC(C)CC)CC3` (centres undefined), the GI50 in test [1] is 30.7 µM (inactive); in [19], > 100 µM (inactive); in [2], 41.5 µM (inactive); in test [3] it was > 100 µM (inactive); in [4] it was 45.3 µM (inactive); in test [5], > 100 µM (inactive). The GI50 in test [6] is 42.2 µM (inactive); in test [7] it was 71.6 µM (inactive); in [8] it was 35.7 µM (inactive); in test [10], 27.4 µM (inactive); in test [11] it was 49.2 µM (inactive); in [12], 60.8 µM (inactive). Also, the GI50 was > 100 µM (inactive) in test [13]; > 100 µM (inactive) in [14]; 83.4 µM (inactive) in [15]; 42.3 µM (inactive) in [16]; 21.9 µM (inactive) in test [18].

For `CCC(=O)Nc1ccc(N2C(=O)/C(=C/c3ccc(O)c(OC)c3)N=C2c2ccccc2)cc1`, the GI50 is > 100 µM (inactive) in [1]; 23.6 µM (inactive) in [19]; 19.5 µM (inactive) in [2]; 46.5 µM (inactive) in test [4]; 54.5 µM (inactive) in test [5]; 36.7 µM (inactive) in test [6]. Besides, the GI50 was 26.4 µM (inactive) in [7]; 31.3 µM (inactive) in test [8]; 19.7 µM (inactive) in [9]; 13.2 µM (inactive) in [10]; 24 µM (inactive) in test [11]; 31 µM (inactive) in test [12]. For the same compound, the GI50 in test [13] is 23.3 µM (inactive); in test [14], 51.2 µM (inactive); in [15], 25.5 µM (inactive); in [16], 34.4 µM (inactive); in test [17] it was 40.8 µM (inactive); in test [18] it was 24 µM (inactive).

As for `C=C[C@@]1(C)CC(=O)[C@]2(O)[C@@]3(C)[C@@H](OC(C)=O)CCC(C)(C)[C@@H]3[C@H](OC(C)=O)[C@H](OC(C)=O)[C@@]2(C)O1`, the GI50 in test [1], in [19], in [2], in test [4], in test [5] and in [6] was > 100 µM (inactive) each time. Further, the GI50 in [7], in [8], in test [9], in test [10], in [11] and in [12] was > 100 µM (inactive) each time. Further, the GI50 in test [13], in test [14], in [15], in test [16], in [17] and in test [18] was > 100 µM (inactive) in each case.

With `C/C(=N/NC(=O)c1ccccc1Nc1ccccc1C(=O)N/N=C(\C)c1ccc(C)cc1)c1ccc(C)cc1`, the GI50 in [1] was > 100 µM (inactive); in [19], > 100 µM (inactive); in test [2], > 100 µM (inactive); in [3], 83.6 µM (inactive); in test [4] it was > 100 µM (inactive); in test [5], > 100 µM (inactive). Moreover, the GI50 is 31.8 µM (inactive) in test [7]; > 100 µM (inactive) in [8]; 47 µM (inactive) in test [9]; > 100 µM (inactive) in [10]; > 100 µM (inactive) in test [11]; > 100 µM (inactive) in [12]. For the same compound, the GI50 in [13] is 23.9 µM (inactive); in [14], > 100 µM (inactive); in test [15], > 100 µM (inactive); in test [16], 53.3 µM (inactive); in test [17], > 100 µM (inactive); in test [18], > 100 µM (inactive).

For `C=C=C(C)C(=O)N(C(C)C)C(C)C`, the GI50 in test [1], in test [2], in [3], in test [4], in test [5] and in [6] was > 100 µM (inactive) throughout. In addition, the GI50 in test [7], in test [8], in test [9], in test [10], in test [11] and in test [12] was > 100 µM (inactive) in each case. In addition, the GI50 in test [13], in [14], in test [15], in test [16], in [17] and in test [18] was > 100 µM (inactive) in each case.
